Legend:
[1] = Veinous thrombosis: veinous anti-thrombus activity; type: in vivo; settings: 100 mg/kg I.P., 4 to 5 hours after administration; for inhibition in vivo at 100 mg/kg: Rattus norvegicus, ip, read-out: Diminution of veinous thrombus
Description: The technique used is similar to the one described by Peterson-Zucker in Thrombo.Diath.Haemorh. 23, 1, (1970).
An occlusive thrombus is created in the […] vena cava of a rat by the combined action of an endothelial alteration and a veinous stasis for 15 mins. and 4 to 5 hours after administration of the product to be tested (100 mg/kg I.P.).

[2] = Anti-ulcer activity: ulcer caused by aspirin; type: in vivo, rat (male Wistar); settings: 100 mg/kg I.P.; aspirin 192 mg/kg per os; standardised to control batch and cimetidine (index 1)
Description: The experiment is carried out on male Wistar rats of 180 to 200 g. The products to be tested are administered at 100 mg/kg I.P. (unless indicated to the contrary in Table IV).
At t=0, the rats are made to fast and a first administration of the product to be tested is made.
At t=18 hours, 2 ml of an ulcer-forming suspension with 192 mg of aspirin/kg are administered per os then a second administration of the product to be tested is made.
At t=22 hours, the animals are sacrificed and the ulcers are marked as follows: small point-like ulcers: mark 1 more extensive ulcers: mark 3 highly extensive or very deep ulcers: mark 9
This marking is standardised with respect to a control batch and to cimetidine (a reference product) to which index 1 has been allocated.

[3] = Acute toxicity in the mouse by the I.P. route; type: in vivo; settings: for LD50: read-out: DL-50 (lethal dose involving the death of half of the animals)
Text: The acute toxicity was studied in the mouse by the I.P. route. It is expressed in the form of DL-50 (lethal dose involving the death of half of the animals) or DL-0 (maximum non-lethal dose).

[4] = Anti-hypoxic activity: survival to hypoxia (nitrogen-oxygen 95:5); type: in vivo, mouse (Swiss male); settings: I.P., 1/10th of LD-50 or 100 mg/kg when LD-0 ≥ 800 mg/kg; up to 15 minutes; mouse
Description: The experiment is carried out on batches of 20 Swiss male mice weighing from 20 to 30 g. Each product to be tested is administered to the mice by intraperitoneal route at a dose corresponding to 1/10th of the LD-50 or at a dose of 100 mg/kg when the LD-0 is higher than or equal to 800 mg/kg. The mice are placed in a nitrogen-oxygen (95:5) v/v atmosphere. The survival time of the mice is then measured up to 15 minutes maximum.
The results shown in Table VII are expressed in percentage of survival with respect to a non-treated control batch and a batch treated with an anti-hypoxic reference product [specialty known under the trade name of "Duxil" and which is constituted by a mixture of Almitrine bis-methanesulfonate and of Raubasine in the weight ratio 3:1], the anti-hypoxic reference product being administered at the dose of 18 mg/kg I.P.

Compound | inhibition in vivo at 100 mg/kg [1] [%] | Diminution of veinous thrombus ([1]; rat) | Ulcer index [2] | DL-0 (maximum non-lethal dose) ([3]; I.P.) [mg/kg IP] | LD50 ([3]; in vivo, ip, I.P.) [mg/kg] | Survival (survival percentage to hypoxic aggression) [4] | DL-0 (maximum non-lethal dose) ([3]; in vivo, ip) [mg/kg IP]
O=[N+]([O-])c1ccc(C(O)c2ccc(O[C@@H]3OC[C@@H](O)[C@H](O)[C@H]3O)cc2)cc1 (single isomer, unassigned) [Example 98, [4-(4-nitro-α-hydroxybenzyl)-phenyl]-β-D-xylopyranoside] | ≥ 50 | – | – | – | – | – | –
O=[N+]([O-])c1ccc(C(O)c2ccc(O[C@@H]3OC[C@@H](O)[C@H](O)[C@H]3O)cc2)cc1 (single isomer, unassigned) [Example 99, [4-(4-nitro-α-hydroxybenzyl)-phenyl]-β-D-xylopyranoside] | – | + (inhibition of 30 to 49%) | – | – | – | – | –
O=C(c1ccc(O[C@@H]2OC[C@@H](O)[C@H](O)[C@H]2O)cc1)c1cccc([N+](=O)[O-])c1 [Example 2] | 30 to 49 | – | 0.84 | > 800 | – | – | –
O=C(c1ccc(Br)cc1)c1ccc(O[C@@H]2OC[C@@H](O)[C@H](O)[C@H]2O)cc1 [Example 4] | 30 to 49 | – | 1.04 | > 800 | – | – | –
O=C(c1ccc(O[C@@H]2OC[C@@H](O)[C@H](O)[C@H]2O)cc1)c1ccccc1Cl [Example 5] | ≥ 50 | – | – | > 800 | – | – | –
O=C(c1ccc(O[C@@H]2OC[C@@H](O)[C@H](O)[C@H]2O)cc1)c1ccccc1[N+](=O)[O-] [Example 6] | 30 to 49 | – | 0.45 | – | 600 | – | –
Nc1ccccc1C(=O)c1ccc(O[C@@H]2OC[C@@H](O)[C@H](O)[C@H]2O)cc1 [Example 7] | ≥ 50 | – | – | > 800 | – | – | –
COc1ccc(C(=O)c2ccc(O[C@@H]3OC[C@@H](O)[C@H](O)[C@H]3O)cc2)cc1 [Example 17] | 30 to 49 | – | 0.69 | – | 1600 | – | –
O=C(c1ccccc1)c1ccc(O[C@@H]2OC[C@@H](O)[C@H](O)[C@H]2O)cc1 [Example 18] | 30 to 49 | – | – | – | > 1000 | – | –
O=C(c1ccc(O[C@@H]2O[C@H](CO)[C@@H](O)[C@H](O)[C@H]2O)cc1)c1ccc([N+](=O)[O-])cc1 [Example 19] | – | – | 0.74 | – | – | ++ (from 50 to 79%) | > 800
Cc1cc(C(=O)c2ccc([N+](=O)[O-])cc2)cc(C)c1O[C@@H]1OC[C@@H](O)[C@H](O)[C@H]1O [Example 23] | 30 to 49 | – | 0.52 | – | 750 | – | –
CC(=O)N[C@H]1[C@H](Oc2c(C)cc(C(=O)c3ccccc3C)cc2C)O[C@H](CO)[C@@H](O)[C@@H]1O [Example 26] | – | – | 0.60 | – | 700 | + (from 30 to 49%) | –
Cc1cc(C(=O)c2ccc([N+](=O)[O-])cc2)ccc1O[C@@H]1OC[C@@H](O)[C@H](O)[C@H]1O [Example 29] | 30 to 49 | – | – | > 800 | – | – | –
CC(=O)O[C@@H]1[C@@H](OC(C)=O)[C@H](Oc2ccc(C(=O)c3ccc([N+](=O)[O-])cc3)cc2)OC[C@H]1OC(C)=O [Example 41, [4-(4-nitrobenzoyl)-phenyl]-2,3,4-tri-(O-acetyl)-β-D-xylopyranoside] | – | – | 0.40 | – | – | +++ (higher than or equal to 80%) | > 800
CC(=O)N[C@H]1[C@H](Oc2ccc(C(=O)c3ccc(Cl)cc3)cc2)O[C@H](CO)[C@@H](O)[C@@H]1O [Example 43] | – | – | 0.52 | – | – | +++ (higher than or equal to 80%) | > 800
CC(=O)N[C@H]1[C@H](Oc2ccc(C(=O)c3ccc([N+](=O)[O-])cc3)cc2)O[C@H](CO)[C@@H](O)[C@@H]1O [Example 44, [4-(4-nitrobenzoyl)-phenyl]-2-(N-acetyl)-β-D-glucosaminide] | – | – | 0.385 | – | – | +++ (higher than or equal to 80%) | > 800
CC(=O)O[C@@H]1[C@@H](OC(C)=O)[C@H](Oc2ccc(C(=O)c3ccc(N)cc3)cc2)OC[C@H]1OC(C)=O [Example 77] | 30 to 49 | – | – | > 800 | – | – | –
OC(c1ccccc1)c1ccc(O[C@@H]2OC[C@@H](O)[C@H](O)[C@H]2O)cc1 (some centres unmarked) [Example 92] | 30 to 49 | – | – | – | 1400 | – | –
CC(=O)N[C@H]1[C@H](Oc2ccc(C(O)c3ccc(Cl)cc3)cc2)O[C@H](CO)[C@@H](O)[C@@H]1O (some centres unmarked) [Example 100] | – | – | 0.35 | – | – | ++ (from 50 to 79%) | > 800
CC(=O)O[C@@H]1[C@@H](OC(C)=O)[C@H](Oc2ccc(C(=O)c3ccccc3C)cc2C)OC[C@H]1OC(C)=O [Example 103] | – | – | 0.65 | – | – | ++ (from 50 to 79%) | > 800
CC(=O)N[C@H]1[C@H](Oc2ccc(C(=O)c3ccc([N+](=O)[O-])cc3)cc2)O[C@H](COC(C)=O)[C@@H](OC(C)=O)[C@@H]1OC(C)=O [Example 109] | – | – | 0.65 | – | – | ++ (from 50 to 79%) | > 800
CC(=O)OC[C@H]1O[C@@H](Oc2ccc(C(=O)c3ccc([N+](=O)[O-])cc3)cc2)[C@H](OC(C)=O)[C@@H](OC(C)=O)[C@@H]1OC(C)=O [Example 110] | – | – | 0.71 | – | – | ++ (from 50 to 79%) | > 800
CC(=O)N[C@H]1[C@H](Oc2ccc(C(=O)c3ccc(C)cc3)cc2)O[C@H](CO)[C@@H](O)[C@@H]1O [Example 111] | – | – | 0.42 | – | 750 | ++ (from 50 to 79%) | –
CC(=O)N[C@H]1[C@H](Oc2ccc(C(=O)c3ccc(C)cc3)cc2)O[C@H](COC(C)=O)[C@@H](OC(C)=O)[C@@H]1OC(C)=O [Example 112] | – | – | 0.68 | – | – | ++ (from 50 to 79%) | > 800
CC(=O)O[C@@H]1[C@@H](OC(C)=O)[C@H](Oc2ccc(C(=O)c3ccc(N(C)C)cc3)cc2)OC[C@H]1OC(C)=O [Example 116] | – | – | 0.44 | – | – | + (from 30 to 49%) | > 800
OC(c1ccccc1)c1cccc(O[C@@H]2OC[C@@H](O)[C@H](O)[C@H]2O)c1 (some centres unmarked) [Example 117] | – | – | 0.59 | – | 1000 | ++ (from 50 to 79%) | –
CC(=O)N[C@H]1[C@H](Oc2ccc(C(=O)c3ccccc3C)cc2)O[C@H](CO)[C@@H](O)[C@@H]1O [Example 121] | – | – | 0.39 | – | – | + (from 30 to 49%) | > 800
CC(=O)N[C@H]1[C@H](Oc2ccc(C(=O)c3ccccc3C)cc2C)O[C@H](CO)[C@@H](O)[C@@H]1O [Example 122] | – | – | 0.91 | – | – | + (from 30 to 49%) | > 800

Source: patent publication US4432973A, “Benzoyl- and α-hydroxybenzyl-phenyl-glycosides and application thereof in therapeutics” (Societe de Recherches Industrielles (S.O.R.I.), priority 1980, dated 1984)
